Calls of active or inactive are those of the source.
Columns and labels:
[1] = target: Botulinum neurotoxin type F (Clostridium botulinum, UniProt P30996); assay: High-throughput multiplex microsphere dose response for inhibitors of toxin protease, specifically Botulinum neurotoxin light chain F protease, compounds from Cherry Pick 02.; assay type: functional; conditions: read-out: EC50_MICROM
[2] = tested on: Streptococcus sp. 'group A'; assay: Streptococcus pyogenes SK(-)GAS viability under kanamycin – luminescence, BacTiterGlo, confirmation, counter-screen for streptokinase expression inhibitor project, dose response (AID 1900); assay type: functional, organism-based
Albumin = Albumin (Bos taurus, UniProt P02769); assay: Counterscreen for inhibitors of T-cell receptor (TCR)-CD3 interaction: Fluorescence-based biochemical high throughput dose response assay to identify inhibitors of T-cell receptor (TCR)-CD3 interaction using a TAMRA-labeled BSA probe.; assay type: functional
Streptococcus = assay: GAS UMAA2166 growth inhibition – luminescence, BacTiterGlo, counter-screen for streptokinase expression inhibitor project, dose response (AID 1915); assay type: functional, organism-based;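 also: potency for reduction of bacterial viability or growth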
cells [3] = assay type: functional, cell-based; conditions: HEK-CNG
[4] = Luminescence Cell-Based Dose Retest to Confirm Inhibitors of Cancer Stem Cells. [Related pubchem assays (depositor defined):AID2717, AID2721]; assay type: functional; conditions: Homo sapiens
Galanin receptor type 3 = target: T1, Galanin receptor type 3 (Homo sapiens, UniProt O60755); assay: Fluorescence-based cell-based primary high throughput dose response assay to identify antagonists of the Galanin Receptor 3 (GalR3).; assay type: functional
T1 sequence (O60755 whole entry): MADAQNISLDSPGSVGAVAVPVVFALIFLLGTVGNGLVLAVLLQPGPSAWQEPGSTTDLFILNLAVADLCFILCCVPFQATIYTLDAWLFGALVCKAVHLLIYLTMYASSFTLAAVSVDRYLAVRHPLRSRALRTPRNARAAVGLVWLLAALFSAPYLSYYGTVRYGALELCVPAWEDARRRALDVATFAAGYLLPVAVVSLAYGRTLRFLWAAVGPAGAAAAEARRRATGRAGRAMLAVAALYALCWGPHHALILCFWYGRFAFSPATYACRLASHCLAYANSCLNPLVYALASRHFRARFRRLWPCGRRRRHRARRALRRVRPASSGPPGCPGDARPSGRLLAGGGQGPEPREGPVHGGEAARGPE

[5] = target: T2, High affinity choline transporter 1 (Homo sapiens, UniProt Q9GZV3); assay: human choline transporter blockers, potency – cell-based, 10-point CRC, membrane potential dye, dose response (AID 588401); assay type: functional;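 also: membrane potential dye fluorescence of choline-evoked depolarization via CHT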
T2 sequence (Q9GZV3 whole entry): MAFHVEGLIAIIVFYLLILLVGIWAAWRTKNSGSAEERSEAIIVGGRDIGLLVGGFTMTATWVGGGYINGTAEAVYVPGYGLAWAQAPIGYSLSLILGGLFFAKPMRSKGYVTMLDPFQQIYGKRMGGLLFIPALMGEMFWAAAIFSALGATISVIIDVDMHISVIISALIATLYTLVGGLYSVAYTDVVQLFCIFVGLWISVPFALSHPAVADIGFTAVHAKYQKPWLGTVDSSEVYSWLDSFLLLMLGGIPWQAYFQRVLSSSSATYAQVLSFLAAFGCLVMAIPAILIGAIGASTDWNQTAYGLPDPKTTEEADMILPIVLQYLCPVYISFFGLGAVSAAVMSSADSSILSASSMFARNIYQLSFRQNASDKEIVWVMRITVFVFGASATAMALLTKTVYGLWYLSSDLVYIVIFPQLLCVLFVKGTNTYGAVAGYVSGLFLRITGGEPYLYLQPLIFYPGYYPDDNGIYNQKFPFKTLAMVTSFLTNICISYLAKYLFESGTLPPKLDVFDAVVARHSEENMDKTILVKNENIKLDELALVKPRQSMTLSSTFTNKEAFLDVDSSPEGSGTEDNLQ

[6] = target: T2, High affinity choline transporter 1; assay: human choline transporter blockers, potency – cell-based, 5-point CRC, membrane potential dye, dose response (AID 504840); assay type: functional
[7] = viability loss in HEK293T cells – cell-based, cherry-picks, cytotoxicity control for HIV Vif inhibitor project, dose response (AID 652208); assay type: functional
[8] = target: FAD-linked sulfhydryl oxidase ALR (Homo sapiens, UniProt P55789); assay: ALR-catalysed DTT oxidation blockers – biochemical, H2O2 detection, luminescence, cherry-pick, dose response (AID 493248)
[9] = target: 5-hydroxytryptamine receptor 2A (Mus musculus, UniProt P35363); assay type: functional, cell-based;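 also: CHO-K1 cells with tagged receptor and beta-arrestin; agonist potency measured as compound-induced activation of the receptor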
Mu-type opioid receptor = Mu-type opioid receptor (Homo sapiens, UniProt P35372); assay type: functional, cell-based;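 also: U2OS cells with beta-arrestin recruitment to OPRM1 by beta-gal complementation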
[10] = CMV-driven luciferase expression suppression in HEK293 – cell-based, luminescence, dry powder, counter-screen for Pax8 inhibitor project, dose response (AID 743020); assay type: functional
[11] = fluconazole-exposed Candida albicans growth modulators – fluorescence, retest, confirmation (AID 2467); assay type: functional, cell-based
Paired box protein Pax-8 = Paired box protein Pax-8 (Homo sapiens, UniProt Q06710); assay: PAX8 transcriptional activity inhibition in RMG-I – RMG-I cells, luciferase, cherry-pick, dose response (AID 687027); assay type: functional, cell-based;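 also: luciferase reporter driven by Pax8 target thyroperoxidase promoter measured by SteadyGlo luminescence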
[12] = NIH-3T3 fibroblast cytotoxicity, dose response, cytotoxicity control, cell-based, fluorescence, Alamar Blue, secondary assay (AID 2327); assay type: functional;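 also: NIH-3T3 mouse fibroblasts cultured with fluconazole at 8 µg/mL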
[13] = target: Serine/threonine-protein phosphatase (Candida dubliniensis (strain CD36 / CBS 7987 / NCPF 3949 / NRRLY-17841) (Yeast), UniProt B9W6M3); assay: blockers of CaCl2-induced CDRE-lacZ signaling – S. cerevisiae, luminescence, secondary, dose response (AID 2388); assay type: functional, cell-based;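 also: yeast reporter cells carrying a calcineurin-responsive lacZ construct stimulated with calcium chloride; luminescent beta-galactosidase reporter signal in whole cells rather than isolated phosphatase activity; potency for inhibition where a drop in reporter signal means calcineurin blockade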
[14] = target: ATP-dependent molecular chaperone HSP82 (Candida albicans (strain WO-1) (Yeast), UniProt C4YTQ8); assay: steroid-induced GRE reporter decrease in yeast – S. cerevisiae, luminescence, Hsp90 inhibitor project, dose response (AID 2400); assay type: functional, cell-based;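 also: beta-galactosidase luminescence from glucocorticoid response element reporter as proxy for Hsp90 function; inhibitor potency where signal loss means Hsp90 inhibition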
HeLa = assay: viability loss in HeLa cells – cell-based, ATP luminescence, cherry-pick samples, cytotoxicity control, dose response (AID 687004); assay type: functional; conditions: Homo sapiens
[15] = general mammalian cell viability loss – inhibitor set, cherry-pick, set 2, cytotoxicity control for miR-122 modulator project, dose response (AID 720697); assay type: functional, cell-based
[16] = activation of miR-122 Renilla sensor silencing – cell-based, Huh7 psiCHECK-miR122, Renilla luciferase, cherry-picked, dose response (AID 651956); assay type: functional;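 also: huh7 hepatoma cells stably carrying a psiCHECK-2 miR-122 sensor plasmid; renilla luciferase signal reporting endogenous miR-122 activity after 48 h compound exposure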
[17] = general mammalian cell viability loss – activator set, cherry-pick, cytotoxicity control for miR-122 modulator project, dose response (AID 720690); assay type: functional, cell-based;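 also: HEK293T human cells scored for general mammalian cytotoxicity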
NS3 = NS3 (Hepatitis C virus, UniProt A3EZJ3); assay: NS3h DNA-binding inhibition IC50 – biochemical, fluorescence polarization, ChemBridge library, dose response (AID 743264)
[18] = HGIII-sPLA2 enzyme inhibition potency – biochemical, QFRET, IC50, dose response (AID 743457);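 also: green fluorescence rise as the enzyme cleaves BODIPY PC-A2 in liposomes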
[19] = T. cruzi growth inhibition in host cells, dose response, cell-based, plate reader, dry powder, set 2 (AID 652275); assay type: functional
[20] = target: T3, Rac GTPase-activating protein 1 (Homo sapiens, UniProt Q9H0H5); assay: blockers of MgcRacGAP-driven Rac1 GTP hydrolysis – biochemical, ADP Hunter fluorescence, primary and confirmatory, confirmation (AID 624330); assay type: functional
T3 sequence (Q9H0H5 whole entry): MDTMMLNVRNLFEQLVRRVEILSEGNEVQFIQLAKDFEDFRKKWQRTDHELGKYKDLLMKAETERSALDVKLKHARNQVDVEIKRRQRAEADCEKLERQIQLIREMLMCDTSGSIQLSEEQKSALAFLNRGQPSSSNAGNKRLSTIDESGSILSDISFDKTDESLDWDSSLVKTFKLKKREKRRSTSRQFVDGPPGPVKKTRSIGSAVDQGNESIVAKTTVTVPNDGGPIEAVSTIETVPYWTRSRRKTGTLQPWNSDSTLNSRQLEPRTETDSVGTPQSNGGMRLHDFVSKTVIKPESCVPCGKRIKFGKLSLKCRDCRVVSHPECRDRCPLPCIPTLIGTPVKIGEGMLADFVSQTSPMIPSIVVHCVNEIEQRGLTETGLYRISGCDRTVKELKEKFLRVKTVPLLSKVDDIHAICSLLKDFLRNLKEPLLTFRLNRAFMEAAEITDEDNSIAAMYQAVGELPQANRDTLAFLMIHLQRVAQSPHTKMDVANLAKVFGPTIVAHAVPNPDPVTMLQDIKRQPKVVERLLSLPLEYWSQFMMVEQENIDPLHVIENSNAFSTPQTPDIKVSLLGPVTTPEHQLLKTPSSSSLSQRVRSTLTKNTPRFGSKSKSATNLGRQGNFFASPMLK

[21] = target: Arf-GAP with SH3 domain, ANK repeat and PH domain-containing protein 1 (Homo sapiens, UniProt Q9ULH1); assay type: functional;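 also: biochemical fluorescence polarization dose–response screen measuring inhibition of ASAP1; ASAP1 GAP domain stimulating GTP hydrolysis by truncated human ARF1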
[22] = viability loss in HeLa cells – cytotoxicity control for MgcRacGAP inhibitor project, dose response (AID 624300); assay type: functional
[23] = target: T4, DNA repair protein RAD52 homolog (Homo sapiens, UniProt P43351); assay type: functional, biochemical
T4 sequence (P43351 whole entry): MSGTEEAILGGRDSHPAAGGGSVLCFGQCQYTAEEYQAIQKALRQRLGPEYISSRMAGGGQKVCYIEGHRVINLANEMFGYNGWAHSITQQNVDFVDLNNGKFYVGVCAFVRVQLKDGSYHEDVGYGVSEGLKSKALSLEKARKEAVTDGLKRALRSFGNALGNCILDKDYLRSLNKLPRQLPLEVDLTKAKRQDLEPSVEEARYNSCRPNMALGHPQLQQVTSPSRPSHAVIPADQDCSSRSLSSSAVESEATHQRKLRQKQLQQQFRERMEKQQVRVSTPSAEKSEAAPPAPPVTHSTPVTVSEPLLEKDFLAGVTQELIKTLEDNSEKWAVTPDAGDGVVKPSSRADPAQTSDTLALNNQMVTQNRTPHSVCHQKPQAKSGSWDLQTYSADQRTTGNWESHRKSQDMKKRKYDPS

[24] = inhibitors of EBV LMP1 NF-kappaB signaling – cell-based, luciferase reporter, luminescence, dry powder, set 2, dose response (AID 624376); assay type: functional
Plasmodium falciparum = assay: antimalarial activity against intraerythrocytic 3D7 parasites – 3D7 strain, red blood cells, SYBR Green, cherry-picked, dose response (AID 652047); assay type: functional
cells [25] = assay type: functional, cell-based
[26] = target: Nuclear receptor subfamily 0 group B member 1 (Homo sapiens, UniProt P51843); assay type: functional, cell-based;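 also: HEK293T cells transfected with SF-1 and DAX-1 plus StAR promoter luciferase reporter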
Protein Wnt-3a = Protein Wnt-3a (Mus musculus, UniProt P27467); assay: SAR analysis of small molecule antagonists of Gli-SUFU in a Wnt3a luminescent reporter assay.; assay type: functional

Chain of NS3 (A3EZJ3 whole entry): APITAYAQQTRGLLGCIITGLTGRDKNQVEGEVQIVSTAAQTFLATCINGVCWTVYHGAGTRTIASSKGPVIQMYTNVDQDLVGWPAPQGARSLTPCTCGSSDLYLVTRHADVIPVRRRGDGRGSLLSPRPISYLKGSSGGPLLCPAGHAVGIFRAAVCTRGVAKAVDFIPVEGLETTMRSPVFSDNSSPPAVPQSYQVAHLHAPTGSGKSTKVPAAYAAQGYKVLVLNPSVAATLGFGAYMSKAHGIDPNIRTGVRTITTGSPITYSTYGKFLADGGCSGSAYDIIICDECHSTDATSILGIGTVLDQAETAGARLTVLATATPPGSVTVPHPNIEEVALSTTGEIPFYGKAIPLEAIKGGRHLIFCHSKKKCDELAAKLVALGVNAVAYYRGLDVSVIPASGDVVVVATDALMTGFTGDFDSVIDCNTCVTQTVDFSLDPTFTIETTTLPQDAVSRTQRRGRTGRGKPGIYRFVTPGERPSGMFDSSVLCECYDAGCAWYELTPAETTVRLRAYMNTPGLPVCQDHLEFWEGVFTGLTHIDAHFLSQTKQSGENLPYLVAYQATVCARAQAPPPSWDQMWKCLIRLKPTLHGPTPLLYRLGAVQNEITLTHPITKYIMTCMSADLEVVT
Chain of Botulinum neurotoxin type F (P30996 1-436 limits assumed): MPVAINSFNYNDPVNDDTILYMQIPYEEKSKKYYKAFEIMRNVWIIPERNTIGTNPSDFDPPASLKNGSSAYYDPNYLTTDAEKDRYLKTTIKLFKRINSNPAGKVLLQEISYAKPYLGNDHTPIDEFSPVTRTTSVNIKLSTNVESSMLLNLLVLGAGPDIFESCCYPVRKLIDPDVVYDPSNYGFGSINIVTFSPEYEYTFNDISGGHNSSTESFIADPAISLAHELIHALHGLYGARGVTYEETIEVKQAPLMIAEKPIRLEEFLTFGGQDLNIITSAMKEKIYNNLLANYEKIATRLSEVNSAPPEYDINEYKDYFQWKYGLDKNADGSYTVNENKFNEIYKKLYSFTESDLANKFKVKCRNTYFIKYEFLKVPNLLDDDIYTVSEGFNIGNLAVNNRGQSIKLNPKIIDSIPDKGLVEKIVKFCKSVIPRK
Chain of ATP-dependent molecular chaperone HSP82 (C4YTQ8 whole entry): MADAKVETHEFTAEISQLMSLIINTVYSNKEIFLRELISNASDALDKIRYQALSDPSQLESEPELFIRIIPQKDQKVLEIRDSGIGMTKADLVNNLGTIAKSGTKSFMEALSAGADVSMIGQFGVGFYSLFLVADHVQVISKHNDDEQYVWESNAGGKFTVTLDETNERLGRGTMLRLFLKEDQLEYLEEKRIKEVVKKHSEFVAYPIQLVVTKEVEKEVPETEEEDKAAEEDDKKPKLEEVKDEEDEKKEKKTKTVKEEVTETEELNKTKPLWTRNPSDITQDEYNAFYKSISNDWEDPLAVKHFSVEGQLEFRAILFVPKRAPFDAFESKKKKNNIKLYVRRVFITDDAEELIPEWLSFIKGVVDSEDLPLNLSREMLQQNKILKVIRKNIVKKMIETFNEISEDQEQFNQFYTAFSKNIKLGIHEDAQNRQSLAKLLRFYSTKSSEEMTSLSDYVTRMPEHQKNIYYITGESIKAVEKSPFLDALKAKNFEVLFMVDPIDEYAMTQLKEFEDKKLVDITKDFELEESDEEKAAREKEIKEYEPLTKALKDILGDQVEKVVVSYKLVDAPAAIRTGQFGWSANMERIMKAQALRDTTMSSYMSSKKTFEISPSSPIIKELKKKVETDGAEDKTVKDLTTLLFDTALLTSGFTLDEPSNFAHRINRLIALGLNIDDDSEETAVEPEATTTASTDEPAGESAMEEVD
Chain of Albumin (P02769 whole entry): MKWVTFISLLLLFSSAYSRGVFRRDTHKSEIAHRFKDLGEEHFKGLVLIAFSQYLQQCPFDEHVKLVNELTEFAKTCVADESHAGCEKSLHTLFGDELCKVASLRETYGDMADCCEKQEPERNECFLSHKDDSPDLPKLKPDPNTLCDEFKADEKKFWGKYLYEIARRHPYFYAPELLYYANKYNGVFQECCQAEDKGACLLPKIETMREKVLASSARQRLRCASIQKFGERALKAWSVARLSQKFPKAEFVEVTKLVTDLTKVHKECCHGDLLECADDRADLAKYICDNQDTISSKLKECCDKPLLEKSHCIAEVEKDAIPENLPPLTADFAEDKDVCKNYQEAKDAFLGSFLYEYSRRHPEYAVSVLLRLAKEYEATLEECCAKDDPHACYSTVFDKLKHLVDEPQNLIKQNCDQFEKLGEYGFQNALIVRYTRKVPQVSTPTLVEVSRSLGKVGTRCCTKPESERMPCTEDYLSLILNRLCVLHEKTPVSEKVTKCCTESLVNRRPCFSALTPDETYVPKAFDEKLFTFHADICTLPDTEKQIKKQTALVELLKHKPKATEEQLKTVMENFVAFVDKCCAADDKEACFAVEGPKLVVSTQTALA
Chain of Serine/threonine-protein phosphatase (B9W6M3 whole entry): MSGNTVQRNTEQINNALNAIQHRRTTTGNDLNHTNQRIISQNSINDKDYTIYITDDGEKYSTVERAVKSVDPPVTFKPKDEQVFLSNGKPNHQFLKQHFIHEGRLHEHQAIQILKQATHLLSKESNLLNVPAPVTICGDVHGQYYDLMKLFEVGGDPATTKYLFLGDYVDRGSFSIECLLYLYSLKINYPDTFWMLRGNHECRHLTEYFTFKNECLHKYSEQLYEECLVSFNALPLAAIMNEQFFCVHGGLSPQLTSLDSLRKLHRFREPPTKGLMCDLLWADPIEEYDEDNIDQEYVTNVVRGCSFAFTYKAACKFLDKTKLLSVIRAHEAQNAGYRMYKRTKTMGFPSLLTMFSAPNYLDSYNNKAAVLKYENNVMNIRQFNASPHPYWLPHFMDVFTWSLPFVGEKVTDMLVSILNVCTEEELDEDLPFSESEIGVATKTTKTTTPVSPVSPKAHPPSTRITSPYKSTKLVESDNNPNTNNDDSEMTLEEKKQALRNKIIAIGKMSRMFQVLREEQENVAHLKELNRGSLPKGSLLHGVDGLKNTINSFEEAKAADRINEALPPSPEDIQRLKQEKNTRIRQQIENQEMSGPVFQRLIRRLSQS
Chain of Arf-GAP with SH3 domain, ANK repeat and PH domain-containing protein 1 (Q9ULH1 whole entry, the tested form may be a part): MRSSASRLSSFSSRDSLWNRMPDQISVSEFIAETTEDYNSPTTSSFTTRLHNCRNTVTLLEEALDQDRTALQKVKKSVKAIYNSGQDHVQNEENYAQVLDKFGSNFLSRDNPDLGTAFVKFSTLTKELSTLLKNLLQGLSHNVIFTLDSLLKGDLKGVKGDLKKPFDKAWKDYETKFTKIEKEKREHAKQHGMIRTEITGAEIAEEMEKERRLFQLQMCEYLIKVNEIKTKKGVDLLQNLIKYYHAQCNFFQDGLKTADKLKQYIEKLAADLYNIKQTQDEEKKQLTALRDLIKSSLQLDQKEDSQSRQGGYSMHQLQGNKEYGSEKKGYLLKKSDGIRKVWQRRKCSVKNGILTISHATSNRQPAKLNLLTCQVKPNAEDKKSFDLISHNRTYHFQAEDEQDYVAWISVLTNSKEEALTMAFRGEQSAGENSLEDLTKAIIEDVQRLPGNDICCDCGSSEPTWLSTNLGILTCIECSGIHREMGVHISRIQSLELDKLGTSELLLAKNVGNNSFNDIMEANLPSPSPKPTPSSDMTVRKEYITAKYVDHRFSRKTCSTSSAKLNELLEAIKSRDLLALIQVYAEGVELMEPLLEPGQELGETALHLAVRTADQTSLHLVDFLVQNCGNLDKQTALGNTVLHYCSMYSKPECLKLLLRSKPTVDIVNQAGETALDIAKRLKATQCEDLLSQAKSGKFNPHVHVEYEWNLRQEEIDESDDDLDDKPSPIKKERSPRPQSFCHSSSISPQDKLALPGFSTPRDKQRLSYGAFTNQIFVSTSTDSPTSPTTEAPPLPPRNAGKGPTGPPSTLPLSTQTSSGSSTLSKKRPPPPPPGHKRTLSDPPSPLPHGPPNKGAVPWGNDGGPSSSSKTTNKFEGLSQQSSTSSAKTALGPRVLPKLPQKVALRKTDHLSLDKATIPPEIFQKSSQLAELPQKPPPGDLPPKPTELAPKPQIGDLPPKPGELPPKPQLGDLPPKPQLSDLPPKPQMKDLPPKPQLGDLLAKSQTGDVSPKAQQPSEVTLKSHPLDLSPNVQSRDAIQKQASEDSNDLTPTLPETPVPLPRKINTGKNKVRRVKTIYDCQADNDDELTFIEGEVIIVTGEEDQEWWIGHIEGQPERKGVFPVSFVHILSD
Chain of FAD-linked sulfhydryl oxidase ALR (P55789 whole entry): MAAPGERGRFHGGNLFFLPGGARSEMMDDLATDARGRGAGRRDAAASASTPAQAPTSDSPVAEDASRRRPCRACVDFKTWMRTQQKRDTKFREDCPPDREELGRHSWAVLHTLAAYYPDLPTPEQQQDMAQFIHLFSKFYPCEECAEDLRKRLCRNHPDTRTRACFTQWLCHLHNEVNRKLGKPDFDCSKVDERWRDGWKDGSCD
Chain of Mu-type opioid receptor (P35372 whole entry): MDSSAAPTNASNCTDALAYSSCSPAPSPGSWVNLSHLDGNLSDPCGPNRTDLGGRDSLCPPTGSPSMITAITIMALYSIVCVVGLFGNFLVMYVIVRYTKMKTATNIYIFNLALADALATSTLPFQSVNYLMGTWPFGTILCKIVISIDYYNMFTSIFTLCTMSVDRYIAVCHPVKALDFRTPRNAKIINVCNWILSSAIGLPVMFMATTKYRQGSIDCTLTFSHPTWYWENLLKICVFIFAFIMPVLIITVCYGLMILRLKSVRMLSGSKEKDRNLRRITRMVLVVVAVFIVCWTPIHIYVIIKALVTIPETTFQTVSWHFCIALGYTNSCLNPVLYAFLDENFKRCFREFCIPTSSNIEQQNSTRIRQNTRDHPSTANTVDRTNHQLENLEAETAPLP

With `Cc1ccc(-c2nc3cc(C)c(Br)c(C)n3c2Cc2cccc(Cl)c2)cc1` the EC50 [1] was > 20 µM (inactive).
For `C/C(=N\NC(=O)c1ccc(-c2ccccc2)cc1)C1C(=O)c2ccccc2C1=O`, the EC50 [2] was 0.557 µM (active), the IC50 (Albumin) was > 94.1 µM (inactive) and the EC50 (Streptococcus) was 4.32 µM (active).
In the case of `C=CCNc1ncnc2c1ncn2C1OC(CO)C(O)C1O` (configuration not stated), the EC50 (cells [3]) is reported as 15.8 µM (inactive), the AC50 [4] is reported as 3.33 µM (active) and the IC50 (Galanin receptor type 3) is reported as > 0.369 µM (active). For the same compound, the IC50 [5] was 6.31 µM (active), the IC50 [6] was 9.17 µM (active) and the AC50 [7] was 22.1 µM (active).
In the case of `CNCCc1ccc(O)c(O)c1`, the AC50 [8] is reported as 4.11 µM (active), the EC50 [9] is reported as 0.0874 µM (active) and the EC50 (Mu-type opioid receptor) is reported as 92.3 µM (inactive).
In the case of `O=C(CCS(=O)(=O)c1ccc(Cl)cc1)Nc1nc(-c2ccncc2)cs1`, the AC50 [10] is reported as < 3.35 µM (active), the EC50 [11] is reported as 5.04 µM (active) and the AC50 (Paired box protein Pax-8) is reported as 8.17 µM (active). The EC50 [12] was 27.9 µM (active), the EC50 [13] was > 180 µM (inactive) and the EC50 [14] was > 150 µM (inactive).
In the case of `C/C=C/c1ccc2n(c1=O)C[C@H]1[C@H](CO)[C@@H](C(=O)N3CCc4ccccc4C3)N(C(=O)C3CC3)[C@@H]21.C/C=C\c1ccc2n(c1=O)C[C@H]1[C@H](CO)[C@@H](C(=O)N3CCc4ccccc4C3)N(C(=O)C3CC3)[C@@H]21`, the AC50 (HeLa) is reported as > 52 µM (inactive).
For `C[C@@H]1CCCCO[C@@H](CN(C)CC2CCCCC2)[C@@H](C)CN([C@@H](C)CO)C(=O)c2cc(NC(=O)Nc3cccc4ccccc34)ccc2O1`, the AC50 [15] was 8.05 µM (active), the AC50 [16] was 10.4 µM (active) and the AC50 [17] was 14.6 µM (active).
In the case of `O=C1NC(=S)N(c2ccccc2F)C(=O)C1=Cc1ccco1`, the IC50 (NS3) is reported as 3.35 µM (inactive).
With `O=C(/C=C/c1cccs1)NC(=S)NNC(=O)Cc1cccs1` the EC50 [2] was 2.01 µM (active), the EC50 (Streptococcus) was 5.99 µM (active) and the IC50 [18] was 37 µM (inactive).
For `CC(C)N1CC2(CN(Cc3ccccc3F)C2)Oc2c(NC(=O)c3ccncc3)cccc2C1=O`, the AC50 [19] was 0.747 µM (active).
In the case of `C[n+]1c(-c2ccc(C=NNC(=O)c3ccc(C(=O)NN=Cc4ccc(-c5cn6ccccc6[n+]5C)cc4)cc3)cc2)cn2ccccc21`, the IC50 [20] is reported as 66.4 µM (active), the IC50 [21] is reported as 22.3 µM (inactive) and the CC50 [22] is reported as 100 µM (active). For the same compound, the AC50 [23] was 1.52 µM (active).
For `C[C@@H]1CN([C@@H](C)CO)C(=O)Cc2cc(NC(=O)Cc3ccccc3)ccc2O[C@H]1CN(C)Cc1ccc(C(F)(F)F)cc1`, the AbsAC35 [24] was 115.61 µM.
In the case of `Nc1nc(-c2ccccc2)c(-c2ccc([N+](=O)[O-])cc2)s1`, the AbsAC35 (Plasmodium falciparum) is reported as 103.54 µM.
For `Cc1ccn2c(Cc3ccccc3)c(-c3ccc(Br)cc3)nc2c1`, the IC50 (cells [25]) was > 67.6 µM (inactive) and the IC50 [26] was > 67.6 µM (inactive).
With `COc1cc(OC)cc(C(=O)Nc2cc(N(C)C)ncn2)c1` the IC50 (Protein Wnt-3a) was > 21.8 µM (inactive).

Source: ChEMBL document CHEMBL1201862, “PubChem BioAssay data set” (2004)
